Measurements published in patent publication US10952992B2, “Methods of treating intraocular pressure with activators of Tie-2” (Aerpio Pharmaceuticals, Inc., priority 2015, dated 2021).
Where “and” joins values, the source holds several entries; their conditions need not be identical. Equal entries are not always repeated.

Experiment: Example 2 iris, retina, choroid and cornea tissue concentrations
Format: in vivo, male New Zealand White rabbits
Conditions: for Average / Conc. (ng/g) OS / Conc. (ng/mL) OS / Conc. (ng/mL) OD / Conc. (ng/g) OD: subcutaneous 5 mg/kg/dose (Group 3), free acid; for Average Peak Concentration, Choroid / Average Peak Concentration, Cornea / Average Peak Concentration, Iris / Average Peak Concentration, Retina: suspension; for Choroid Conc. OS / Choroid Conc. OD: choroid homogenate; for Choroid Conc. OD: right eye
Method: To measure the concentration of Compound 1 in plasma and ocular tissues following topical ocular, subcutaneous, and intravitreal administration, New Zealand White rabbits were administered Compound 1, and plasma and ocular samples were collected at pre-determined time points. Compound 1 formulations were prepared fresh on each day of dosing.
Ocular tissue samples from both eyes of each animal were collected and weights were recorded. Plasma and ocular tissue sample concentrations of Compound 1 were determined by LC-MS/MS.
Animals were anesthetized for ocular (topical) and intravitreal dosing following the 12IA7 IACUC protocol. Each rabbit received a bolus dose of test formulation either via topical ocular administration 3 times daily on Days 1 and 2 (at 0, 6, and 12 hours), and once on Day 3 (at 0 hours) into both eyes; via intravitreal administration into both eyes once on Day 1 (at 0 hours); or via subcutaneous administration 2 times daily on Days 1 and 2 (at 0 and 8 hours) and once daily on Day 3 (at 0 hours). Doses were given within an approximately 1 hour window each day where applicable.
On Day 1, for intravitreal administration, or on Day 3, for topical ocular and subcutaneous administration, at the appropriate ocular tissue collection time points, animals were euthanized and both eyes were enucleated immediately. Following enucleation, each eye was rinsed with phosphate-buffered saline. Ocular tissue samples from both eyes of each animal were collected at predetermined time points and weights were recorded. All the samples were frozen immediately on dry ice, and stored at −60° C. to −80° C. pending bioanalysis.
An LC-MS/MS method was developed for the determination of Compound 1 in rabbit aqueous tissues (plasma, aqueous and vitreous humor) and solid ocular tissue samples. A pre-study standard curve was analyzed to determine the specificity, range, and lower limit of quantitation of the method. Plasma and tissue homogenate study samples were extracted and analyzed. All the samples were treated identically to the standards.
One eight-point standard curve was used in each analytical batch. To be accepted, each batch must have had at least five of eight standards with accuracy within ±20% of nominal, except at the lower limit of quantification (LLOQ), where ±25% was acceptable.

[1] = Choroid, 1 hr, listed as Compound 1 (free acid)
[2] = Group 3: subcutaneous 5 mg/kg/dose
[3] = Group 5: intravitreal 1.54 mg/kg/dose

Average (Choroid, 0.5 hr): 127 ng/g
Conc. (ng/g) OS (Choroid, 0.5 hr): 83.1 ng/g and 154 ng/g
Conc. (ng/mL) OS (Choroid, 0.5 hr): 7.55 ng/mL and 14.0 ng/mL
Average (Choroid, 1 hr): 83.3 ng/g
Conc. (ng/mL) OD (Choroid, 1 hr): 8.65 ng/mL
Conc. (ng/g) OD [1]: 66.4 ng/g and 95.2 ng/g
Conc. (ng/g) OS [1]: 88.1 ng/g and 83.6 ng/g
Conc. (ng/mL) OD [1]: 6.04 ng/mL
Conc. (ng/mL) OS [1]: 8.01 ng/mL and 7.60 ng/mL
Average (Choroid, 2 hr): 47.7 ng/g
Conc. (ng/g) OD (Choroid, 2 hr): 36.5 ng/g and 46.9 ng/g
Conc. (ng/g) OS (Choroid, 2 hr): 53.2 ng/g and 54.3 ng/g
Conc. (ng/mL) OD (Choroid, 2 hr): 3.32 ng/mL and 4.26 ng/mL
Conc. (ng/mL) OS (Choroid, 2 hr): 4.84 ng/mL and 4.94 ng/mL
Average (Choroid, 4 hr): 61.0 ng/g
Conc. (ng/g) OD (Choroid, 4 hr): 53.0 ng/g and 51.2 ng/g
Conc. (ng/mL) OD (Choroid, 4 hr): 4.82 ng/mL and 4.65 ng/mL
Average (Cornea, 0.5 hr): 7.96 ng/g
Conc. (ng/g) OD (Cornea, 0.5 hr): 6.05 ng/g
Conc. (ng/g) OS (Cornea, 0.5 hr): 9.87 ng/g
Average (Cornea, 1 hr): 12.2 ng/g
Conc. (ng/g) OD (Cornea, 1 hr): 12.2 ng/g
Conc. (ng/mL) OS (Cornea, 1 hr): BLOQ
Average (Cornea, 2 hr): 5.65 ng/g
Conc. (ng/g) OD (Cornea, 2 hr): 5.65 ng/g
Conc. (ng/mL) OS (Cornea, 2 hr): BLOQ
Average (Cornea, 4 hr): 15.8 ng/g
Conc. (ng/g) OD (Cornea, 4 hr): 10.4 ng/g and 9.32 ng/g
Conc. (ng/mL) OD (Cornea, 4 hr): 0.942 ng/mL and 0.847 ng/mL
Average Peak Concentration, Choroid [2]: 127 ng/g
Average Peak Concentration, Cornea [2]: 7.96 ng/g
Average Peak Concentration, Iris [2]: 50.3 ng/g
Average Peak Concentration, Retina [2]: 38.7 ng/g
Average Peak Concentration, Choroid [3]: 663575 ng/g
Average Peak Concentration, Cornea [3]: 54560 ng/g
Average Peak Concentration, Iris [3]: 210650 ng/g
Average Peak Concentration, Retina [3]: 1988250 ng/g
Average (Iris, 0.5 hr): 50.3 ng/g
Conc. (ng/g) OS (Iris, 0.5 hr): 47.0 ng/g and 38.9 ng/g
Conc. (ng/mL) OS (Iris, 0.5 hr): 4.27 ng/mL and 3.54 ng/mL
Average (Iris, 1 hr): 58.0 ng/g
Conc. (ng/g) OS (Iris, 1 hr): 47.6 ng/g and 34.3 ng/g
Conc. (ng/mL) OS (Iris, 1 hr): 4.33 ng/mL and 3.12 ng/mL
Average (Iris, 2 hr): 27.6 ng/g
Conc. (ng/g) OD (Iris, 2 hr): 30.5 ng/g and 32.0 ng/g
Conc. (ng/g) OS (Iris, 2 hr): 29.5 ng/g
Conc. (ng/mL) OD (Iris, 2 hr): 2.77 ng/mL and 2.91 ng/mL
Conc. (ng/mL) OS (Iris, 2 hr): 2.68 ng/mL and 1.67 ng/mL
Average (Iris, 4 hr): 17.5 ng/g
Conc. (ng/g) OD (Iris, 4 hr): 26.5 ng/g and 17.9 ng/g
Conc. (ng/g) OS (Iris, 4 hr): 16.9 ng/g and 8.73 ng/g
Conc. (ng/mL) OD (Iris, 4 hr): 2.41 ng/mL and 1.63 ng/mL
Conc. (ng/mL) OS (Iris, 4 hr): 1.54 ng/mL and 0.794 ng/mL
Average (Retina, 0.5 hr): 38.7 ng/g
Average (Retina, 1 hr): 10.2 ng/g
Conc. (ng/g) OD (Retina, 1 hr): 10.4 ng/g
Conc. (ng/g) OS (Retina, 1 hr): 6.93 ng/g and 13.3 ng/g
Conc. (ng/mL) OS (Retina, 1 hr): 0.63 ng/mL and 1.21 ng/mL
Average (Retina, 2 hr): 10.5 ng/g
Conc. (ng/g) OD (Retina, 2 hr): 6.31 ng/g
Conc. (ng/g) OS (Retina, 2 hr): 6.93 ng/g
Average (Retina, 4 hr): 35.3 ng/g
Conc. (ng/mL) OD (Retina, 4 hr): BLOQ
Choroid Conc. OS (6.0 hr, left eye, individual animals, intravitreal 2.5 mg/eye (~1.54 mg/kg), group 5): 63400 ng/mL and 69700 ng/mL
Choroid Conc. OD (6.0 hr, individual animals, intravitreal 2.5 mg/eye (~1.54 mg/kg), group 5): 32800 ng/mL and 75400 ng/mL
Choroid Conc. OS (24 hr, left eye, individual animals, intravitreal 2.5 mg/eye (~1.54 mg/kg), group 5): 28400 ng/mL and 43500 ng/mL
Choroid Conc. OD (24 hr, individual animals, intravitreal 2.5 mg/eye (~1.54 mg/kg), group 5): 15200 ng/mL and 57500 ng/mL
Choroid Conc. OS (48 hr, left eye, individual animals, intravitreal 2.5 mg/eye (~1.54 mg/kg), group 5): 9320 ng/mL and 14800 ng/mL
Choroid Conc. OD (48 hr, individual animals, intravitreal 2.5 mg/eye (~1.54 mg/kg), group 5): 9940 ng/mL and 9580 ng/mL
Choroid Conc. OS (72 hr, left eye, individual animals, intravitreal 2.5 mg/eye (~1.54 mg/kg), group 5): 2660 ng/mL and 2910 ng/mL
Choroid Conc. OD (72 hr, individual animals, intravitreal 2.5 mg/eye (~1.54 mg/kg), group 5): 2180 ng/mL and 2270 ng/mL
Choroid tissue Conc. Avg. (choroid, 6.0 hr, average, intravitreal 2.5 mg/eye (~1.54 mg/kg), group 5): 663575 ng/g
Choroid tissue Conc. OS (choroid, 6.0 hr, left eye, individual animals, intravitreal 2.5 mg/eye (~1.54 mg/kg), group 5): 697400 ng/g and 766700 ng/g
Structure (SMILES): COC(=O)N[C@@H](Cc1ccccc1)C(=O)N[C@@H](Cc1ccc(NS(=O)(=O)O)cc1)c1csc(-c2cccs2)n1 [Compound 1 free acid]
